Experimental data: DBAASP
Values after ≈ are worked out from the molar mass of the structure shown.

What was measured:
Assay in all cases: ≥ marks a high value that may be exact or a test limit, other limits are often not marked, values filed in µg/mL are converted to µM
[1] = test system: Staphylococcus aureus CCARM 3518
[2] = test system: Escherichia coli CCARM 1238
[3] = test system: Staphylococcus aureus CCARM 3090
[4] = test system: Escherichia coli CCARM 1229
[5] = test system: Pseudomonas aeruginosa 4891
[6] = test system: Trichosporon beigelii KCTC 7707
[7] = test system: Pseudomonas aeruginosa 4007
[8] = test system: Candida albicans KCTC 7270
[9] = test system: Klebsiella aerogenes ATCC 35029
[10] = test system: Staphylococcus aureus ATCC 6538P
[11] = test system: Escherichia coli ATCC 25922
[12] = test system: Pseudomonas aeruginosa ATCC 27853
[13] = test system: Enterobacter cloacae ATCC 49141
[14] = test system: Enterococcus faecalis ATCC 19433
[15] = test system: Streptococcus pyogenes ATCC 49399
[16] = test system: Bacillus megaterium Bm11
[17] = test system: Candida glabrata ATCC 90525
[18] = test system: Candida krusei ATCC 6258
[19] = test system: Candida albicans ATCC 2048
[20] = test system: Candida tropicalis ATCC 20240
[21] = test system: Candida parapsilosis ATCC 20224
[22] = test system: Enterobacter cloacae beta-12
[23] = test system: Escherichia coli SBS 363
[24] = test system: Pseudomonas aeruginosa PA14
[25] = test system: Escherichia coli D31
[26] = test system: Staphylococcus epidermidis KCTC 1917
[27] = test system: Escherichia coli KCTC 1682
[28] = test system: Bacillus subtilis KCTC 3068
[29] = test system: Salmonella typhimurium KCTC 1926
[30] = test system: Staphylococcus aureus KCTC 1621
[31] = test system: Enterococcus faecium KCCM 12118
[32] = test system: Enterococcus faecalis KCCM 29212
[33] = test system: Enterococcus faecalis ATCC 51575
[34] = test system: Enterococcus faecium ATCC 51559
[35] = test system: Pseudomonas aeruginosa KCTC 1637
[36] = test system: Staphylococcus aureus KCCM 40510
[37] = test system: Candida albicans TISTR 5554
[38] = test system: Bacillus cereus TISTR 1449
[39] = test system: Aeromonas hydrophila TISTR 1321
[40] = test system: Edwardsiella tarda DMST 38217
[41] = test system: Escherichia coli DH5alpha
[42] = test system: Salmonella typhimurium TISTR 1472
[43] = test system: Bacillus subtilis TISTR 1248
[44] = test system: Salmonella enterica subsp. enterica serovar Derby DMST 16881
[45] = test system: Staphylococcus aureus ATCC 25923
[46] = test system: Pseudomonas aeruginosa TISTR 1287
[47] = test system: Bacillus megaterium TISTR 067
[48] = test system: Enterococcus faecalis TISTR 927
[49] = test system: Staphylococcus aureus TISTR 746

CC[C@H](C)[C@H](NC(=O)[C@H](C)NC(=O)[C@H](CCC(=O)O)NC(=O)[C@H](Cc1cnc[nH]1)NC(=O)[C@@H](NC(=O)[C@H](CCCCN)NC(=O)[C@H](CCC(N)=O)NC(=O)[C@H](Cc1ccccc1)NC(=O)[C@@H](NC(=O)[C@H](CCCCN)NC(=O)[C@H](CCCCN)NC(=O)[C@H](CC(C)C)NC(=O)[C@H](C)NC(=O)[C@H](CC(N)=O)NC(=O)[C@H](CC(C)C)NC(=O)CN)C(C)C)[C@@H](C)CC)C(=O)N[C@@H](CCCCN)C(=O)N[C@@H](CCCCN)C(=O)N[C@H](C(=O)N[C@@H](CC(N)=O)C(=O)N[C@@H](CC(N)=O)C(=O)N[C@@H](Cc1cnc[nH]1)C(=O)N[C@H](C(=O)N[C@@H](CCC(N)=O)C(N)=O)C(C)C)[C@@H](C)CC [GLNALKKVFQKIHEAIKKINNHVQ]
MIC [1]: 4 µM (≈ 11.1 µg/mL) | MIC [2]: 4 µM (≈ 11.1 µg/mL) | MIC [3]: 8 µM (≈ 22.2 µg/mL) | MIC [4]: 4 µM (≈ 11.1 µg/mL) | MIC [5]: 4 µM (≈ 11.1 µg/mL) | MIC [6]: ≥ 32 µM | MIC [7]: 2 µM (≈ 5.54 µg/mL) | MIC [8]: ≥ 32 µM

CC[C@H](C)[C@H](NC(=O)[C@H](Cc1c[nH]c2ccccc12)NC(=O)[C@H](Cc1ccccc1)NC(=O)[C@@H]1CCCN1C(=O)[C@H](CCCN=C(N)N)NC(=O)[C@@H](N)CCCN=C(N)N)C(=O)N[C@H](C(=O)N[C@@H](CCCN=C(N)N)C(=O)N[C@@H](CCCN=C(N)N)C(N)=O)[C@@H](C)CC [RRPFWIIRR]
MIC [9]: ≥ 80 µM | MIC [10]: ≥ 80 µM | MIC [11]: 80 µM (≈ 104 µg/mL) | MIC [12]: > 80 µM | MIC [13]: ≥ 80 µM | MIC [14]: ≥ 80 µM | MIC [15]: 10 µM (≈ 13 µg/mL) | MIC [16]: 1.25 µM (≈ 1.62 µg/mL)

CC(C)C[C@H](NC(=O)[C@H](C)NC(=O)[C@H](CC(C)C)NC(=O)[C@H](CC(=O)O)NC(=O)[C@H](CCC(N)=O)NC(=O)[C@@H](N)CC(C)C)C(=O)N[C@@H](CCC(N)=O)C(=O)NCC(=O)N[C@@H](C)C(=O)N[C@@H](CCCCN)C(=O)N[C@@H](CCC(=O)O)C(=O)N[C@@H](CCCN=C(N)N)C(=O)N[C@@H](C)C(=O)N[C@@H](Cc1cnc[nH]1)C(=O)N[C@@H](CCC(N)=O)C(=O)N[C@@H](CCC(N)=O)C(=O)O [LQDLALQGAKERAHQQ]
MIC [17]: ≥ 280 µM | MIC [18]: ≥ 380 µM | MIC [19]: ≥ 380 µM | MIC [20]: ≥ 410 µM | MIC [21]: ≥ 320 µM

CC[C@H](C)[C@H](NC(=O)[C@H](CC(=O)O)NC(=O)[C@H](CC(=O)O)NC(=O)[C@H](CC(N)=O)NC(=O)CNC(=O)[C@H](CO)NC(=O)[C@H](Cc1ccccc1)NC(=O)[C@H](CC(=O)O)NC(=O)[C@@H](NC(=O)CNC(=O)[C@@H](N)C(C)C)[C@@H](C)O)C(=O)N[C@@H](CO)C(=O)N[C@@H](CC(=O)O)C(=O)N[C@H](C(=O)N[C@@H](CCC(N)=O)C(=O)N[C@@H](CCCCN)C(=O)O)C(C)C [VGTDFSGNDDISDVQK]
MIC [22]: 2.3 µM (≈ 3.9 µg/mL) | MIC [12]: 1.15 µM (≈ 1.95 µg/mL) | MIC [23]: 4.6 µM (≈ 7.81 µg/mL) | MIC [24]: 4.6 µM (≈ 7.81 µg/mL) | MIC [25]: 4.6 µM (≈ 7.81 µg/mL)

CC[C@H](C)[C@H](NC(=O)[C@H](CC(C)C)NC(=O)[C@H](CC(C)C)NC(=O)[C@@H](N)CC(C)C)C(=O)N[C@@H](C)C(=O)N[C@@H](CC(C)C)C(=O)N[C@@H](CCCN=C(N)N)C(=O)N[C@@H](CCCCN)C(=O)N[C@@H](CCCCN)C(N)=O [LLLIALRKK]
MIC [26]: 1.87 µM (≈ 2 µg/mL) | MIC [27]: 3.75 µM (≈ 4 µg/mL) | MIC [28]: 3.75 µM (≈ 4 µg/mL) | MIC [29]: 1.87 µM (≈ 2 µg/mL) | MIC [30]: 3.75 µM (≈ 4 µg/mL) | MIC [31]: 3.75 µM (≈ 4 µg/mL) | MIC [32]: 3.75 µM (≈ 4 µg/mL) | MIC [33]: 7.49 µM (≈ 7.99 µg/mL) | MIC [34]: 1.87 µM (≈ 2 µg/mL) | MIC [35]: 3.75 µM (≈ 4 µg/mL) | MIC [36]: 3.75 µM (≈ 4 µg/mL)

CC(C)C[C@H](NC(=O)[C@H](CCCCN)NC(=O)[C@@H](NC(=O)[C@H](CO)NC(=O)[C@H](Cc1ccccc1)NC(=O)[C@H](CC(C)C)NC(=O)[C@H](Cc1c[nH]c2ccccc12)NC(=O)[C@@H](NC(=O)[C@H](CS)NC(=O)[C@H](CC(N)=O)NC(=O)[C@@H](N)CCCN=C(N)N)[C@@H](C)O)[C@@H](C)O)C(=O)N[C@@H](CCCCN)C(=O)N[C@@H](CC(C)C)C(=O)N1CCC[C@H]1C(=O)N[C@@H](C)C(=O)O [RNCTWLFSTKLKLPA]
MIC [11]: 112 µM (≈ 200 µg/mL) | MIC [37]: ≥ 225 µM | MIC [38]: ≥ 225 µM | MIC [39]: ≥ 225 µM | MIC [40]: ≥ 225 µM | MIC [41]: ≥ 112 µM | MIC [42]: ≥ 225 µM | MIC [43]: 14.1 µM (≈ 25 µg/mL) | MIC [44]: ≥ 225 µM | MIC [45]: 225 µM (≈ 400 µg/mL) | MIC [46]: ≥ 225 µM | MIC [47]: 7.03 µM (≈ 12.5 µg/mL) | MIC [48]: ≥ 56.2 µM | MIC [49]: ≥ 225 µM
